Assay results reported in patent US20090306133A1, “New Acetyl Coenzyme A Carboxylase (ACC) Inhibitors And Uses In Treatments Of Obesity And Diabetes Mellitus - 087” (ASTRAZENECA AB, priority 2007, published 2009).

Experiments:
[1] = target: Human recombinant Acetyl-CoA Carboxylase 1 (ACC1) (Homo sapiens, UniProt Q13085); assay: Assay X: ACC1 inhibition, inorganic phosphate (malachite green); format: biochemical; settings: Assay X: 37° C., 1.5 h, 5 min pre-incubation
How it was run: (§1)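 Human recombinant enzyme pre-incubated 5 min with compound before substrate addition; reaction run 1.5 h, then inorganic phosphate detected by malachite green absorbance at 660 nm. Ten concentrations tested in triplicate; apparent IC50 from four-parameter curve fit.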

[2] = target: Human recombinant Acetyl-CoA Carboxylase 2 (ACC2) (Homo sapiens, UniProt O00763); assay: Assay X: ACC2 inhibition, inorganic phosphate (malachite green); format: biochemical; settings: Assay X: 37° C., 1.5 h, 5 min pre-incubation
Human recombinant Acetyl-CoA Carboxylase 2 (ACC2), sequence (O00763 whole entry): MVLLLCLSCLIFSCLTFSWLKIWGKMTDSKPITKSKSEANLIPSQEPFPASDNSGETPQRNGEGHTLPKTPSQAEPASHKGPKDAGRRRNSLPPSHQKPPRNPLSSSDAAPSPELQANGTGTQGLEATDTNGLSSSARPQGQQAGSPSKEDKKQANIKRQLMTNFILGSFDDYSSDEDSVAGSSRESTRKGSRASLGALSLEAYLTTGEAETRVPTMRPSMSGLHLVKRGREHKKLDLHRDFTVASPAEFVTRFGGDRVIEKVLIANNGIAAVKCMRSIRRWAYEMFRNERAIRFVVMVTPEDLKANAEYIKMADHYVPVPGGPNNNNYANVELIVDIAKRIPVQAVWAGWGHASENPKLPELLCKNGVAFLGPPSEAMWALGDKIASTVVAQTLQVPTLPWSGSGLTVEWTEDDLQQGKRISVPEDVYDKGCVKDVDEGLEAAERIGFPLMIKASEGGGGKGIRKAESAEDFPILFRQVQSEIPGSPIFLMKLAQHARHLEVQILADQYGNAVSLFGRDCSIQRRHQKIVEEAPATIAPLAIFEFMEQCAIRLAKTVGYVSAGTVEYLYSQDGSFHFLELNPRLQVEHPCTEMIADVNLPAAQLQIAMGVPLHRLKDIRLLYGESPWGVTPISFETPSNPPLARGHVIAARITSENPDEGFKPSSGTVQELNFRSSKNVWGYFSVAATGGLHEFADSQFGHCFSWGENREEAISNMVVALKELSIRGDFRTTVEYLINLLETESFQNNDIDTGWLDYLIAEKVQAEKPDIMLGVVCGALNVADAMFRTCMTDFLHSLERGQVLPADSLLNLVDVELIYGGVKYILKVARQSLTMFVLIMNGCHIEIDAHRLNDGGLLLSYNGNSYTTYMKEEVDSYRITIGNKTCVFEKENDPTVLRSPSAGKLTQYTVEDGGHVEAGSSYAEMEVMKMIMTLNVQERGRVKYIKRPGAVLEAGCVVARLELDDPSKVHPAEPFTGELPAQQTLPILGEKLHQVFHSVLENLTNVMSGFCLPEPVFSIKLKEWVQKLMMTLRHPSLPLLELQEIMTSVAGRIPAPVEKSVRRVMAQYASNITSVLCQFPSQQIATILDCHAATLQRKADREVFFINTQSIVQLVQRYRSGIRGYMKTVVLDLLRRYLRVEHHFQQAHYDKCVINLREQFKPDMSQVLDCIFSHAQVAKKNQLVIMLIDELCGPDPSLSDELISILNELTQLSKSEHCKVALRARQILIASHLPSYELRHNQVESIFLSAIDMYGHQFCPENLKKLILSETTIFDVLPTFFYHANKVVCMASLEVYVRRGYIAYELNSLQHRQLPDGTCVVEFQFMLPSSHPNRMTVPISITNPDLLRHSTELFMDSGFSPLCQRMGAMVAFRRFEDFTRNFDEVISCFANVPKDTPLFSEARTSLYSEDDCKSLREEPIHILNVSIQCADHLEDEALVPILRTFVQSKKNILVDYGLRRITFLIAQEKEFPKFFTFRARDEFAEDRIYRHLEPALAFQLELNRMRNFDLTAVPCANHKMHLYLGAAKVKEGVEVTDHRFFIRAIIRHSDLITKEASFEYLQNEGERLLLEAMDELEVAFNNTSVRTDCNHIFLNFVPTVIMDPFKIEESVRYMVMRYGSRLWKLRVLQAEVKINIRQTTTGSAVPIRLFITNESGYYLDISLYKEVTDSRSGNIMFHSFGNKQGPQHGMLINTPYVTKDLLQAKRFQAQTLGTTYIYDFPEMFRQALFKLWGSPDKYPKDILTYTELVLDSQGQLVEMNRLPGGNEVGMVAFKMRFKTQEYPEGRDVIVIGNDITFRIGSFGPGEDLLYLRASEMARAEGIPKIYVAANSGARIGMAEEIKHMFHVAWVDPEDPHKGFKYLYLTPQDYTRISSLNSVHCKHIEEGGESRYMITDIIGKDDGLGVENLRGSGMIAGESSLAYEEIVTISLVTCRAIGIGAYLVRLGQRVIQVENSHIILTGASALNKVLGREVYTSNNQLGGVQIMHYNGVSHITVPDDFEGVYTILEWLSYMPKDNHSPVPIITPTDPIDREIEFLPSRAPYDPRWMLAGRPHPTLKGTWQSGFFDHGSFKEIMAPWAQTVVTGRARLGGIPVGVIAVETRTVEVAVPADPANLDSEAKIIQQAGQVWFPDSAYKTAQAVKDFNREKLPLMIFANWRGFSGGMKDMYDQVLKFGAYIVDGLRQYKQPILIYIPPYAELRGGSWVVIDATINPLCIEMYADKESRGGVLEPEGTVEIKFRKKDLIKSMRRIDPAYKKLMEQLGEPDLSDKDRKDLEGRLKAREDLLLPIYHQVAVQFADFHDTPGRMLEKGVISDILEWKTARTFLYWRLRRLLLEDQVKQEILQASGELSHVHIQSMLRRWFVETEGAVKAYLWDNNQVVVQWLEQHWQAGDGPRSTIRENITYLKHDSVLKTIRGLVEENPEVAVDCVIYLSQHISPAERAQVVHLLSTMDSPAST
How it was run: as §1

Compound | IC50 [1] | IC50 [2]
CN(C)CCNc1ccc(-c2cc(C(=O)NC[C@H]3CC[C@H](CNC(=O)O[C@H]4CCOC4)CC3)c3ccccc3n2)cn1 [Example 199, (3S)-Tetrahydrofuran-3-yl({trans-4-[({[2-(6-{[2-(dimethylamino)ethyl]-amino}pyridin-3-yl)quinolin-4-yl]carbonyl}amino)-methyl]cyclohexyl}-methyl)carbamate] | 1.6 µM | 0.37 µM
O=C(NC[C@H]1CC[C@H](CNC(=O)c2cc(-c3ccc(NCCO)nc3)nc3ccccc23)CC1)O[C@H]1CCOC1 [Example 200, (3S)-Tetrahydrofuran-3-yl{[trans-4-({[(2-{6-[(2-hydroxyethyl)amino]pyridin-3-yl}quinolin-4-yl)carbonyl]amino}methyl)cyclohexyl]methyl}-carbamate] | 4.5 µM | 1.2 µM
O=C(NC[C@H]1CC[C@H](CNC(=O)c2cc(-c3ccc(N4CC[C@@H](O)C4)nc3)nc3ccccc23)CC1)O[C@H]1CCOC1 [Example 201, (3S)-Tetrahydrofuran-3-yl {[trans-4-({[(2-{6-[(3R)-3-hydroxypyrrolidin-1-yl]pyridin-3-yl}quinolin-4-yl)carbonyl]amino}methyl)cyclohexyl]methyl}-carbamate] | 2.17 µM | 0.85 µM
O=C(NC[C@H]1CC[C@H](CNC(=O)c2cc(-c3ccc(N4CC[C@@H](O)C4)nc3)nc3ccccc23)CC1)OC1CCOCC1 [Example 202, Tetrahydro-2H-pyran-4-yl {[trans-4-({[(2-{6-[(3R)-3-hydroxypyrrolidin-1-yl]pyridin-3-yl}quinolin-4-yl)carbonyl]amino}methyl)cyclohexyl]methyl}-carbamate] | 1.1 µM | 0.51 µM
CN(C)CCOc1ccc(-c2cc(C(=O)NC[C@H]3CC[C@H](CNC(=O)OC(C)(C)C)CC3)c3ccccc3n2)cc1 [Example 203, tert-Butyl {[trans-4-({[(2-{4-[2-(dimethylamino)ethoxy]phenyl}quinolin-4-yl)carbonyl]amino}methyl)cyclohexyl]methyl}carbamate] | 0.63 µM | 0.15 µM
CN(C)CC(O)CC1CCN(c2cc(C(=O)NC[C@H]3CC[C@H](CNC(=O)OC(C)(C)C)CC3)c3ccccc3n2)CC1 (stereo partly drawn) [Example 205, tert-Butyl {[trans-4-({[(2-{4-[3-(dimethylamino)-2-hydroxypropyl]piperidin-1-yl}quinolin-4-yl)carbonyl]amino}methyl)cyclohexyl]methyl}carbamate] | 1.31 µM | 0.14 µM
CN(C)C(=O)COC1CCN(c2cc(C(=O)NC[C@H]3CC[C@H](CNC(=O)OC(C)(C)C)CC3)c3ccccc3n2)CC1 [Example 210, tert-Butyl {[trans-4-({[(2-{4-[2-(dimethylamino)-2-oxoethoxy]piperidin-1-yl}quinolin-4-yl)carbonyl]amino}methyl)cyclohexyl]methyl}carbamate] | 13.1 µM | 2.04 µM
CN(C)CCOC1CCN(c2cc(C(=O)NC[C@H]3CC[C@H](CNC(=O)OC(C)(C)C)CC3)c3ccccc3n2)CC1 [Example 211, tert-Butyl {[trans-4-({[(2-{4-[2-(dimethylamino)ethoxy]piperidin-1-yl}quinolin-4-yl)carbonyl]amino}methyl)cyclohexyl]methyl}carbamate] | 2.22 µM | 0.27 µM
CN(C)CCC1CCN(c2cc(C(=O)NC[C@H]3CC[C@H](CNC(=O)OCC(C)(C)C)CC3)c3ccccc3n2)CC1 [Example 212, 2,2-Dimethylpropyl {[trans-4-({[(2-{4-[2-(dimethylamino)ethyl]piperidin-1-yl}quinolin-4-yl)carbonyl]amino}methyl)cyclohexyl]methyl}carbamate] | 1.19 µM | 0.12 µM
CC(C)(C)OC(=O)NC[C@H]1CC[C@H](CNC(=O)c2cc(N3CCC(CN4CCOCC4)CC3)nc3ccccc23)CC1 [Example 213, tert-Butyl[(trans-4-{[({2-[4-(morpholin-4-ylmethyl)piperidin-1-yl]quinolin-4-yl}carbonyl)amino]methyl}cyclohexyl)methyl]-carbamate] | 3.28 µM | 0.62 µM
CN1CCN(C2CCN(c3cc(C(=O)NC[C@H]4CC[C@H](CNC(=O)OC(C)(C)C)CC4)c4ccccc4n3)CC2)CC1 [Example 214, tert-Butyl[(trans-4-{[({2-[4-(4-methylpiperazin-1-yl)piperidin-1-yl]-quinolin-4-yl}carbonyl)amino]methyl}cyclohexyl)methyl]-carbamate] | 3.31 µM | 2.24 µM
CC(C)(C)OC(=O)NC[C@H]1CC[C@H](CNC(=O)c2cc(Oc3cccnc3)nc3ccccc23)CC1 [Example 215, tert-Butyl ({trans-4-[({[2-(pyridin-3-yloxy)quinolin-4-yl]carbonyl}amino)-methyl]cyclohexyl}methyl)carbamate] | > 20 µM | 0.49 µM
CN1CCC(COc2cc(C(=O)NC[C@H]3CC[C@H](CNC(=O)OC(C)(C)C)CC3)c3ccccc3n2)CC1 [Example 216, tert-Butyl [(trans-4-{[({2-[(1-methylpiperidin-4-yl)methoxy]quinolin-4-yl}carbonyl)amino]methyl}cyclohexyl)methyl]-carbamate] | 3.55 µM | 0.72 µM
CN(C)CCNC(=O)C1CN(c2cc(C(=O)NC[C@H]3CC[C@H](CNC(=O)OC(C)(C)C)CC3)c3ccccc3n2)C1 [Example 217, tert-Butyl ({trans-4-[({[2-(3-{[2-(dimethylamino)ethyl]carbamoyl}azetidin-1-yl)quinolin-4-yl]carbonyl}amino)methyl]cyclohexyl}methyl)carbamate] | 4.7 µM | 0.73 µM
CC(C)(C)OC(=O)NC[C@H]1CC[C@H](CNC(=O)c2cc(-c3ccc(N)cc3)nc3ccccc23)CC1 [Example 218, tert-Butyl ({trans-4-[({[2-(4-aminophenyl)quinolin-4-yl]carbonyl}amino)-methyl]cyclohexyl}methyl)carbamate] | 0.21 µM | 0.06 µM
CN(C)CCN1CCN(c2cc(C(=O)NC[C@H]3CC[C@H](CNC(=O)OC(C)(C)C)CC3)c3ccccc3n2)CC1=O [Example 219, tert-Butyl {[trans-4-({[(2-{4-[2-(dimethylamino)ethyl]-3-oxopiperazin-1-yl}quinolin-4-yl)carbonyl]amino}methyl)cyclohexyl]methyl}carbamate] | 4.58 µM | 0.9 µM
CC(C)(C)OC(=O)NC[C@H]1CC[C@H](CNC(=O)c2cc(N3CCN(C(=O)CO)CC3)nc3ccccc23)CC1 [Example 220, tert-Butyl [(trans-4-{[({2-[4-(hydroxyacetyl)piperazin-1-yl]quinolin-4-yl}carbonyl)amino]methyl}cyclohexyl)methyl]carbamate] | 9.63 µM | 1.18 µM
CC(C)(C)OC(=O)NC[C@H]1CC[C@H](CNC(=O)c2cc(N3CCC(OCc4ccc(F)cc4)CC3)nc3ccccc23)CC1 [Example 221, tert-Butyl {[trans-4-({[(2-{4-[(4-fluorobenzyl)oxy]piperidin-1-yl}quinolin-4-yl)carbonyl]amino}methyl)cyclohexyl]methyl}carbamate] | > 20 µM | 1.61 µM
CC(C)(C)OC(=O)NC[C@H]1CC[C@H](CNC(=O)c2c(N)sc3ccccc23)CC1 [Example 222, tert-Butyl {[trans-4-({[(2-amino-1-benzothiophen-3-yl)carbonyl]amino}methyl)-cyclohexyl]methyl}carbamate] | 9.1 µM | 3.4 µM
CCNC(=O)Nc1sc2ccccc2c1C(=O)NC[C@H]1CC[C@H](CNC(=O)OC(C)(C)C)CC1 [Example 223, tert-Butyl [(trans-4-{[({2-[(ethylcarbamoyl)amino]-1-benzothiophen-3-yl}carbonyl)amino]methyl}cyclohexyl)methyl]carbamate] | 1.16 µM | 0.23 µM
CN(C)CCC1CCN(c2cc(C(=O)NC[C@H]3CC[C@H](CNC(=O)OC4CCOCC4)CC3)c3ccccc3n2)CC1 [Example 224, Tetrahydro-2H-pyran-4-yl {[trans-4-({[(2-{4-[2-(dimethylamino)ethyl]piperidin-1-yl}quinolin-4-yl)carbonyl]amino}methyl)cyclohexyl]methyl}carbamate] | 6.31 µM | 0.68 µM
CN1CCC(C2CCN(c3cc(C(=O)NC[C@H]4CC[C@H](CNC(=O)OC(C)(C)C)CC4)c4ccccc4n3)CC2)CC1 [Example 225, tert-Butyl ({trans-4-[({[2-(1′-methyl-4,4′-bipiperidin-1-yl)quinolin-4-yl]carbonyl}amino)methyl]cyclohexyl}methyl)carbamate] | 0.95 µM | 0.11 µM
COCCNCCC1CCN(c2cc(C(=O)NC[C@H]3CC[C@H](CNC(=O)OC(C)(C)C)CC3)c3ccccc3n2)CC1 [Example 226, tert-Butyl ({trans-4-[({[2-(4-{2-[(2-methoxyethyl)amino]ethyl}piperidin-1-yl)quinolin-4-yl]carbonyl}amino)methyl]cyclohexyl}methyl)carbamate] | 1.63 µM | 0.2 µM
COCCN(C)CCC1CCN(c2cc(C(=O)NC[C@H]3CC[C@H](CNC(=O)OC(C)(C)C)CC3)c3ccccc3n2)CC1 [Example 227, tert-Butyl({trans-4-[({[2-(4-{2-[(2-methoxyethyl)(methyl)-amino]ethyl}piperidin-1-yl)quinolin-4-yl]carbonyl}amino)-methyl]cyclohexyl}-methyl)carbamate] | 1.63 µM | 0.23 µM
CC(C)(C)OC(=O)NC[C@H]1CC[C@H](CNC(=O)c2cc(N3CCC(CCNC4CCOCC4)CC3)nc3ccccc23)CC1 [Example 228, tert-Butyl{[trans-4-({[(2-{4-[2-(tetrahydro-2H-pyran-4-ylamino)ethyl]piperidin-1-yl}quinolin-4-yl)carbonyl]amino}-methyl)cyclohexyl]-methyl}carbamate] | 1.52 µM | 0.21 µM
